# Patent US5191079A, “Quinolinecarboxylic acid derivatives” (priority 1990, dated 1993)
# Read-outs that look alike come from different tables or passages of the source.
# Legend:
# Format in all cases: cell-based
# [1] = tested on: Acinetobacter calcoaceticus Ac 54; test: MIC, Experiment 1; conditions: AC54, A. calcoaceticus Ac 54, Gram -, read-out: Min. inhib. concentr. (MIC)
# Summary of the method: (§1)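 MIC was determined by the Japan Society of Chemotherapy agar dilution method, working from 1000 μg/ml standard solutions (DMSO or water stocks). S. pneumoniae was precultured in brain heart infusion broth and tested on heart infusion agar with 5% defibrinated horse blood. Other strains used sensitivity test broth and sensitivity test agar.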
# Bacillus cereus IAM 1029 = test: MIC, Experiment 1; conditions: IAM1029, B. cereus IAM 1029, Gram +, read-out: Min. inhib. concentr. (MIC)
# Summary of the method: (§2)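 Following the Japan Society of Chemotherapy standard, compounds were diluted in water to 1000 μg/ml standard solutions and tested on agar plates. Sensitivity test broth and agar served the staphylococcal and Bacillus strains. Pneumococci were grown in brain heart infusion broth before testing on heart infusion agar with 5% horse blood.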
# [2] = tested on: Bacillus subtilis ATCC 6633; test: MIC, Experiment 1; conditions: ATCC6633, B. subtilis ATCC 6633, Gram +, read-out: Min. inhib. concentr. (MIC)
# Summary of the method: as §2
# Enterobacter cloacae 963 = test: MIC, Experiment 1; conditions: E. cloacae 963, Gram -, read-out: Min. inhib. concentr. (MIC)
# Summary of the method: as §1
# [3] = tested on: Escherichia coli NIHJ JC-2; test: MIC, Experiment 1; conditions: NIHJJC2, E. coli NIHJ JC-2, Gram -, read-out: Min. inhib. concentr. (MIC)
# Summary of the method: as §1
# [4] = tested on: Klebsiella pneumoniae PCI-602; test: MIC, Experiment 1; conditions: PCI602, K. pneumoniae PCI-602, Gram -, read-out: Min. inhib. concentr. (MIC)
# Summary of the method: as §1
# [5] = tested on: Micrococcus luteus ATCC 9341; test: MIC, Experiment 1; conditions: ATCC9341, M. luteus ATCC 9341, Gram +, read-out: Min. inhib. concentr. (MIC)
# Summary of the method: as §1
# [6] = tested on: Proteus mirabilis IFO 3849; test: MIC, Experiment 1; conditions: IFO3849, P. mirabilis IFO 3849, Gram -, read-out: Min. inhib. concentr. (MIC)
# Summary of the method: as §1
# [7] = tested on: Pseudomonas aeruginosa NCTC 10490; test: MIC, Experiment 1; conditions: NCTC10490, P. aeruginosa NCTC 10490, Gram -, read-out: Min. inhib. concentr. (MIC)
# Summary of the method: as §1
# [8] = tested on: Staphylococcus aureus ATCC 9144; test: MIC, Experiment 1; conditions: ATCC9144, S. aureus ATCC 9144, Gram +, read-out: Min. inhib. concentr. (MIC)
# Summary of the method: as §2
# [9] = tested on: Staphylococcus aureus Cowan I (IID 975); test: MIC, Experiment 1; conditions: IID975, S. aureus Cowan I (IID 975), Gram +, read-out: Min. inhib. concentr. (MIC)
# Summary of the method: as §2
# [10] = tested on: Staphylococcus aureus FDA 209P JC-1; test: MIC, Experiment 1; conditions: FDA209P, S. aureus FDA 209P JC-1, Gram +, read-out: Min. inhib. concentr. (MIC)
# Summary of the method: as §2
# [11] = tested on: Staphylococcus aureus FDA 243; test: MIC, Experiment 1; conditions: FDA243, S. aureus FDA 243, Gram +, read-out: Min. inhib. concentr. (MIC)
# Summary of the method: as §2
# [12] = tested on: Staphylococcus aureus IID 803; test: MIC, Experiment 1; conditions: IID803, S. aureus IID 803, Gram +, read-out: Min. inhib. concentr. (MIC)
# Summary of the method: as §2
# [13] = tested on: Staphylococcus aureus MS-353; test: MIC, Experiment 1; conditions: MS353, S. aureus MS-353, Gram +, read-out: Min. inhib. concentr. (MIC)
# Summary of the method: as §2
# [14] = tested on: Staphylococcus aureus Terajima (IID 670); test: MIC, Experiment 1; conditions: IID670, S. aureus Terajima (IID 670), Gram +, read-out: Min. inhib. concentr. (MIC)
# Summary of the method: as §2
# [15] = tested on: Streptococcus pneumoniae IID 552; test: MIC, Experiment 1; conditions: IID552, S. pneumoniae IID 552, Gram +, agar with 5% defibrinated horse blood, read-out: Min. inhib. concentr. (MIC)
# Summary of the method: as §2
# [16] = tested on: Streptococcus pneumoniae IID 554; test: MIC, Experiment 1; conditions: IID554, S. pneumoniae IID 554, Gram +, agar with 5% defibrinated horse blood, read-out: Min. inhib. concentr. (MIC)
# Summary of the method: as §2
# [17] = tested on: Streptococcus pyogenes Cook; test: MIC, Experiment 1; conditions: S. pyogenes Cook, Gram +, agar with 5% defibrinated horse blood, read-out: Min. inhib. concentr. (MIC)
# Summary of the method: (§3)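 Minimum inhibitory concentrations come from the Japan Society of Chemotherapy procedure. For streptococci, plates were heart infusion agar with 5% defibrinated horse blood after brain heart infusion broth preculture. Non-streptococcal strains were grown in sensitivity test broth and plated on sensitivity test agar.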
# [18] = tested on: Streptococcus pyogenes Su; test: MIC, Experiment 1; conditions: S. pyogenes Su, Gram +, agar with 5% defibrinated horse blood, read-out: Min. inhib. concentr. (MIC)
# Summary of the method: as §3
# [19] = tested on: Streptococcus pyogenes Sv; test: MIC, Experiment 1; conditions: S. pyogenes Sv, Gram +, agar with 5% defibrinated horse blood, read-out: Min. inhib. concentr. (MIC)
# Summary of the method: as §3
# [20] = tested on: clinically isolated Staphylococcus epidermidis; test: In vitro antibacterial activity against clinical isolates, Experiment 2; conditions: Staphylococcus epidermidis; for MIC90: 90% of strains, read-out: MIC90
# Summary of the method: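 Clinical isolates collected Nov. 1988 to Jun. 1989 were precultured in sensitivity test broth. MIC was determined on sensitivity test agar. Compound standard solution was 1000 μg/ml (stock) in sterilized distilled water.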
# [21] = 25 clinical strains S. epidermidis
# [22] = 25 clinical strains S. epidermidis, 50% of strains, read-out: MIC50
SMILES,MIC [1] [µg/mL],MIC (Bacillus cereus IAM 1029) [µg/mL],MIC [2] [µg/mL],MIC (Enterobacter cloacae 963) [µg/mL],MIC [3] [µg/mL],MIC [4] [µg/mL],MIC [5] [µg/mL],MIC [6] [µg/mL],MIC [7] [µg/mL],MIC [8] [µg/mL],MIC [9] [µg/mL],MIC [10] [µg/mL],MIC [11] [µg/mL],MIC [12] [µg/mL],MIC [13] [µg/mL],MIC [14] [µg/mL],MIC [15] [µg/mL],MIC [16] [µg/mL],MIC [17] [µg/mL],MIC [18] [µg/mL],further results
"COC[C@H]1CN(c2c(F)cc3c(=O)c(C(=O)O)c4scc5n4c3c2N(C)C5)CCO1 [Compound (P), 9,1-(Methylimino)methano-7-fluoro-8-[(2R)-2-methoxymethylmorpholino)-5-oxo-5H-thiazolo[3,2-a]quinoline-4-carboxylic acid]",0.013,0.025,≤ 0.006,1.56,0.2,0.025,0.2,0.78,1.56,0.013,0.006,0.05,≤ 0.006,0.025,0.025,0.05,0.05,0.1,0.05,0.05,"MIC [19]: 0.1 µg/mL; MIC [20, 21]: 0.006 to 0.78 µg/mL; MIC50 [20, 22]: 0.05 µg/mL; MIC90 [20, 21]: 0.39 µg/mL"
"CC1CN(c2c(F)cc3c(=O)c(C(=O)O)c4scc5n4c3c2N(C)C5)CCO1 (stereo not drawn) [Compound (A), 9,1-(Methylimino)methano-7-fluoro-8-(2-methylmorpholino)-5-oxo-5H-thiazolo[3,2-a]quinoline-4-carboxylic acid]",≤ 0.006,0.013,≤ 0.006,0.2,0.1,≤ 0.006,0.1,0.2,0.39,0.013,0.013,0.013,≤ 0.006,≤ 0.006,0.013,0.013,0.013,0.05,0.025,0.025,"MIC [19]: 0.025 µg/mL; MIC [20, 21]: 0.006 to 0.39 µg/mL; MIC50 [20, 22]: 0.013 µg/mL; MIC90 [20, 21]: 0.2 µg/mL"
"CN1Cc2csc3c(C(=O)O)c(=O)c4cc(F)c(N5CCO[C@@H](CO)C5)c1c4n23 [Compound (N), 9,1-(Methylimino)methano-7-fluoro-8-[(2R)-2-hydroxymethylmorpholino]-5-oxo-5H-thiazolo[3,2-a]quinoline-4-caboxylic acid]",≤ 0.006,0.025,≤ 0.006,0.39,0.2,≤ 0.006,0.1,0.39,0.39,≤ 0.006,0.013,0.013,≤ 0.006,0.013,0.025,0.025,0.025,0.05,0.025,0.025,"MIC [19]: 0.05 µg/mL; MIC50 [20]: 0.025 µg/mL; MIC [20, 21]: 0.006 to 0.78 µg/mL; MIC90 [20, 21]: 0.39 µg/mL"
